Reference: PubChem BioAssay (NCI)
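The compound was tested at five concentrations on cells cultured in 96-well plates, with a 48-hour exposure period. Abbreviation: GI50, concentration required for 50% inhibition of growth. Definition used: TGI = concentration required for complete inhibition of growth.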

Legend:
Experiment in all cases: NCI tumour cell line growth inhibition, 48 h
DU-145 prostate = tested on: DU-145 prostate
BT-549 breast = tested on: BT-549 breast
T-47D breast = tested on: T-47D breast
HS 578T breast = tested on: HS 578T breast
MDA-MB-435 = tested on: MDA-MB-435

| Compound | GI50 (DU-145 prostate) | TGI (DU-145 prostate) | GI50 (BT-549 breast) | TGI (BT-549 breast) | GI50 (T-47D breast) | TGI (T-47D breast) | GI50 (HS 578T breast) | TGI (HS 578T breast) | GI50 (MDA-MB-435) | TGI (MDA-MB-435) |
| --- | --- | --- | --- | --- | --- | --- | --- | --- | --- | --- |
| COc1cc(-c2nn(-c3cccc(NC(=O)c4cccc(C(F)(F)F)c4)c3)cc2-c2ccncc2)ccc1Cl | 1.76 µM | 32.1 µM | 2.87 µM | 46.8 µM | 2.55 µM | > 50 µM | 1.07 µM | > 50 µM | – | – |
| COc1cc2c(cc1OCCCN1CCN(CCCn3c4ccccc4c4ccccc43)CC1)N=C[C@@H]1CCCN1C2=O | 0.0335 µM | 1.14 µM | 0.0587 µM | 0.288 µM | 0.206 µM | 0.868 µM | – | 0.254 µM | 0.0553 µM | 0.121 µM |
| O=C(Nc1cccc(C(F)(F)F)c1)Nc1ccc(OCc2nnc(-c3ccccc3)o2)c(F)c1 | 6.06 µM | 28.3 µM | – | – | 2.44 µM | 16.1 µM | 2.5 µM | 14.7 µM | 7.51 µM | 89.8 µM |
| COc1cc(/C=C/C(=O)c2c(-c3ccc(Cl)cc3)nc3sc(C)nn23)cc(OC)c1OC | > 100 µM | > 100 µM | 7.77 µM | 77.7 µM | 2.56 µM | 13.5 µM | 24.7 µM | > 100 µM | 12.1 µM | > 100 µM |
| COC(=O)C(NC(=O)c1ccccc1)c1ccc(OC)c(I)c1 (centres undefined) | > 100 µM | > 100 µM | > 100 µM | > 100 µM | 36.6 µM | > 100 µM | 77.1 µM | > 100 µM | 39.6 µM | > 100 µM |
| O=C(/C=C/N1CCN(c2cccc(Cl)c2)CC1)c1ccc(Cl)cc1 | 38.4 µM | > 100 µM | 19.3 µM | 50.2 µM | 51.2 µM | > 100 µM | 26.9 µM | 69.6 µM | 19.3 µM | 50.2 µM |
| OCCn1c(-c2ccncc2)c(-c2ccc(F)cc2)c2ncccc21 | > 25 µM | > 25 µM | > 25 µM | > 25 µM | > 25 µM | > 25 µM | > 25 µM | > 25 µM | > 25 µM | > 25 µM |
| CC(=O)Nc1ccc(C(=O)COc2cccc(/C=C3\CCc4ccccc4C3=O)c2)cc1 | 19.2 µM | 53 µM | 17.6 µM | 54.2 µM | 11 µM | 57.2 µM | 32.6 µM | > 100 µM | 5.58 µM | 30 µM |
| CS(=O)(=O)Nc1ccc(Nc2c3ccccc3nc3cc(Cl)ccc23)cc1 | 0.646 µM | 14 µM | 3.16 µM | 20 µM | 0.987 µM | 13.3 µM | 2.83 µM | 40.4 µM | 3.48 µM | 17.1 µM |
| Nc1ccc(N)c2c1C(=O)c1cccc([N+](=O)[O-])c1C2=O | 0.662 µM | 6.9 µM | 2.54 µM | > 31.2 µM | 6.99 µM | > 100 µM | 2.47 µM | 26.2 µM | 6.3 µM | > 100 µM |
| CCNc1nc(-c2ccc(Cl)c(OC)c2)c(-c2ccnc(NCCNS(=O)(=O)c3ccc(Cl)cc3)n2)s1 | 3.94 µM | > 100 µM | 3.09 µM | 38 µM | 2.48 µM | 8.02 µM | 3.98 µM | 87.2 µM | 3.02 µM | 40.6 µM |
| CCC(=C(c1ccc(OCCN(CC)CC)cc1)c1ccc(OCCN(CC)CC)cc1)c1ccc(Cl)cc1 | 0.619 µM | 1.19 µM | 0.647 µM | 1.45 µM | 0.574 µM | 1.39 µM | 0.668 µM | 1.57 µM | 0.578 µM | 1.07 µM |
| COc1ccc(Cl)cc1Nc1nc(C(F)(F)F)ccc1C(=O)N/N=C/c1ccc(Cl)cc1 | 7.02 µM | > 100 µM | 0.108 µM | 0.932 µM | 0.971 µM | > 100 µM | 22.3 µM | > 100 µM | > 100 µM | > 100 µM |
| N#Cc1c(N/N=C/c2c(Cl)cccc2Cl)nc(N)nc1N1CCCC1 | 5.23 µM | > 100 µM | 11.3 µM | > 100 µM | > 100 µM | > 100 µM | 3.05 µM | > 100 µM | – | – |
| Oc1ccc(CCNc2nc3ccccc3c3[nH]c4ccccc4c23)cc1 | 1.45 µM | 3.42 µM | 1.93 µM | 3.69 µM | 1.94 µM | 6.34 µM | – | – | 1.6 µM | 3.16 µM |
| CN(C)C(=O)c1cc2cnc(Nc3ccc(N4CCNCC4)cn3)nc2n1C1CCCC1 | 23.5 µM | > 100 µM | – | – | 12.9 µM | 91.8 µM | 13.8 µM | 53.5 µM | 12.7 µM | 36.6 µM |
| Cn1c(=O)c(-c2c(Cl)cccc2Cl)cc2cnc(Nc3ccc(N4CCOCC4)cc3)nc21 | – | – | 0.109 µM | – | 0.598 µM | 9.77 µM | – | – | – | – |
| Cc1cccc2c1Oc1ncccc1C2NC(=O)CN(C)C (centres undefined) | – | – | – | > 10 µM | – | – | – | – | – | > 10 µM |
